Experimental findings from patent US20120283274A1, “CRYSTALLINE FORMS OF SUBSTITUTED PYRAZOLOPYRIMIDINES” (priority 2009, published 2012) are described below.

Holding throughout (type): physicochemical
A short description of data set [1]: DVS (dynamic vapour sorption), hygroscopicity. The note with it: for hygroscopicity: DVS 50%->0%->95%->50% r.h.; for post-DVS Raman spectrum, change in form: after DVS cycle; for mass change Δm: change of relative humidity (r.h.) from 50 to 85%. How it is done:
DVS (50%->0%->95%->50% r.h.) was performed on the samples as mentioned above. The results are summarized in the following:
Surface Measurement Systems Ltd. DVS-1 water vapour sorption analyzer and Projekt Messtechnik SPS 11-100n multi-sample water vapor sorption analyzer were used.
The sample was allowed to equilibrate at 50% relative humidity (r.h.) before starting e.g. the following predefined humidity program: • 2 h at 0% r.h. • 0 to 95% r.h. (5%/h) • 3 h at 95% r.h. • 95 to 0% (10%/h) • 2 h at 0% r.h.

Data set [2] can be described thus: Determination of dissolution rate of a compressed tablet (UV-absorption spectroscopy). The note with it: for Dissolution rate: 0.15 M aqueous potassium chloride, 23° C., compressed tablet. More on the design: key to Dissolution rate: —: In case that no data given in the Table 3 it was found, that the dissolution rate did not change significantly in moving from the second to the third and fourth sectors. An excerpt: Only one face of the tablet was exposed to the dissolution medium, which contained an acetate/phosphate buffer system to minimise perturbation of the experimental pH from dissolution of the drug. Stirring of the solution was continuous and at a constant rate. The absorption data was converted to absolute sample weights using previously determined, pH-dependent, molar extinction coefficients. An appropriate wavelength range was chosen to ensure that spectroscopic data with an absorption value of <1.3 was analyzed, avoiding erroneous dissolution results due to saturation of the […]. Dissolution rates were calculated from the fit of a first-order exponential equation to the experimental data obtained.
The dissolution rates listed in the Table 3 were determined at pH 2.0, 3.9, 5.4, and 7.3 (+/−0.1), at a temperature of 23° C. (+/−1° C.).

The nature of data set [3]: Determination of aqueous solubility (HPLC). Here is the method: The samples were shaken with a temperature controlled “Thermomixer comfort” from Eppendorf at 800 rpm (24 hours, 23° C.). The resulting suspensions were filtered with Millipore Centrifugal Filter Device UFC30VVNB (0.1) and Centrifuge Hettich EBA 12 R (10.000 g).
The pH of the filtrate was measured, and the concentration of the free base was determined by HPLC (method is described in Example 7).
Suspension of co-crystal in water was agitated with a temperature controlled. Thermomixer comfort” from Eppendorf with 800 rpm (24 hours, 23° C.). The suspension was filtered with Millipore Centrifugal Filter Device UFC30VVNB (0.1μ) and Centrifuge Hettich EBA 12 R (10,000 g).

With “co-crystal of (6-bromo-pyrazolo[1,5-a]pyrimidin-2-yl)-(1(R)-methyl-3,4-dihydro-1H-isoquinolin-2-yl)-methanone and succinic acid [Example 2a]”, the hygroscopicity entry in data set [1] is “not hygroscopic”. The “post-DVS Raman spectrum, change in form” value in data set [1] is reported as “does not indicate any change in form”. The “mass change Δm” value in data set [1] is on record as “about 0.1%”. Moreover, in data set [2] (at pH 2), the “enhancement of the dissolution rate compared to the free drug” value came out at 3 fold. Moreover, the Dissolution rate in data set [2] (pH 2.0) was 2.06 µg/min; in data set [2] (pH 3.9), 1.58 µg/min; in data set [2] (pH 5.4), “—”; in data set [2] (pH 7.3), “—”.

In data set [3] (thermodynamic from solid, water, 24 hours, 23° C., at pH 8.5, near the detection limit), `C[C@@H]1c2ccccc2CCN1C(=O)c1cc2ncc(Br)cn2n1` [Free drug compound, (6-bromo-pyrazolo[1,5-a]pyrimidin-2-yl)-(1(R)-methyl-3,4-dihydro-1H-isoquinolin-2-yl)-methanone] gave a solubility at 24 h of less than 10 µg/mL. Moreover, the Dissolution rate in data set [2] (pH 2.0) was 0.58 µg/min; in data set [2] (pH 3.9), 0.22 µg/min; in data set [2] (pH 5.4), “—”; in data set [2] (pH 7.3), “—”.

Take `CC1c2ccccc2CCN1C(=O)c1cc2ncc(Br)cn2n1` (centres unmarked) [compound A]: in data set [3] (water or aqueous solvents), the “solubility in water or aqueous solvents” value was “below 10 μg/mL”.

As to `C[C@@H]1c2ccccc2CCN1C(=O)c1cc2ncc(Br)cn2n1.O=C(O)c1cc(O)ccc1O` [Example 3c, co-crystal of (6-bromo-pyrazolo[1,5-a]pyrimidin-2-yl)-(1(R)-methyl-3,4-dihydro-1H-isoquinolin-2-yl)-methanone and gentisic acid], the hygroscopicity entry in data set [1] is listed as “not hygroscopic”. Besides, in data set [1], the “post-DVS Raman spectrum, change in form” value is reported as “does not indicate any change in form”. The “mass change Δm” value in data set [1] is listed as “about 0.1%”. In addition, the Dissolution rate is 2.04 µg/min in data set [2] (pH 2.0), 1.06 µg/min in data set [2] (pH 3.9), “—” in data set [2] (pH 5.4) and “—” in data set [2] (pH 7.3).

For the compound `C[C@@H]1c2ccccc2CCN1C(=O)c1cc2ncc(Br)cn2n1.O=C(O)c1ccc2ccccc2c1O` [Example 4c, co-crystal of (6-bromo-pyrazolo[1,5-a]pyrimidin-2-yl)-(1(R)-methyl-3,4-dihydro-1H-isoquinolin-2-yl)-methanone and xinafoic acid], the hygroscopicity entry in data set [1] is on record as “slightly hygroscopic”. In addition, the “post-DVS Raman spectrum, change in form” value in data set [1] was “does not indicate any change in form”. For the same compound, the “mass change Δm” value in data set [1] is reported as “about 1%”. Besides, the total water content entry in data set [1] (humidity increased to 95% r.h., equilibrium reached) was “approximately 2 wt.-%”. The Dissolution rate in data set [2] (pH 2.0) is 0.46 µg/min; in data set [2] (pH 3.9), 0.68 µg/min; in data set [2] (pH 5.4), 1.26 µg/min; in data set [2] (pH 7.3), 1.44 µg/min.

In general, solubility refers to how much of the substance goes into solution per volume.
